Legend:
Format in all cases: biochemical
RSK1 = RSK1 (Homo sapiens, UniProt Q15418); experiment: Kinase profiling RSK1
Source text: (§1) Any value less that 25 is considered to be highly significant inhibition.

PKD1 = target: T1, PKD1 (Homo sapiens, UniProt Q15139); experiment: Kinase profiling PKD1
T1 sequence (Q15139 1-912): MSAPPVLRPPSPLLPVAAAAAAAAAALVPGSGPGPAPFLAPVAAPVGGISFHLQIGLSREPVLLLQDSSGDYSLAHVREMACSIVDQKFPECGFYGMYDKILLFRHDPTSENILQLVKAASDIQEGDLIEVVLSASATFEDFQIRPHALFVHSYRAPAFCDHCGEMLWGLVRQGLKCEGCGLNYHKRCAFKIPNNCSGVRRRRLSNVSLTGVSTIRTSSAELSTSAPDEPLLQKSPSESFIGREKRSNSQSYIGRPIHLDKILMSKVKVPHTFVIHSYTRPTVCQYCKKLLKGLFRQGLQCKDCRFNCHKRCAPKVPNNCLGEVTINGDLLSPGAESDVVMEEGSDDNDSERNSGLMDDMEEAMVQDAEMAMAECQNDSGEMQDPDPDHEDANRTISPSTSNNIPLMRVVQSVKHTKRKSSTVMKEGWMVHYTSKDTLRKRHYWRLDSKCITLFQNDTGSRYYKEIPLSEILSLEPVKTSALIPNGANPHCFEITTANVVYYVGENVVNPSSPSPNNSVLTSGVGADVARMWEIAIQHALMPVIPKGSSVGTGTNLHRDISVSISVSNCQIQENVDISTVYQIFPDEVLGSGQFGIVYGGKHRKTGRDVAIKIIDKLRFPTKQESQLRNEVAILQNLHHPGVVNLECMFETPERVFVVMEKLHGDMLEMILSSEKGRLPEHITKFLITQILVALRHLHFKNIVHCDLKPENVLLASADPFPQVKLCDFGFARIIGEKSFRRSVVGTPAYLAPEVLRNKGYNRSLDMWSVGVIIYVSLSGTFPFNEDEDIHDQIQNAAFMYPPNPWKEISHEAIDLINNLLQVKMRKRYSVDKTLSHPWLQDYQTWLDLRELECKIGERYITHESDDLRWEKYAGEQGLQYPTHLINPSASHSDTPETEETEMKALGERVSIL
Source text: as §1

DYRK1A = DYRK1A (Homo sapiens, UniProt Q13627); experiment: DYRK 1A assay (kinase profiling)
Description: Assays are stopped by addition of 5 μl of 0.5 M (3%) orthophosphoric acid and then harvested onto P81 Unifilter plates with a wash buffer of 50 mM orthophosphoric acid.
as §1

PIM1 = PIM1 (Homo sapiens, UniProt P11309); experiment: Kinase profiling PIM1
Source text: as §1

PKCa = PKCa (Homo sapiens, UniProt P17252); experiment: Kinase profiling PKCa
Source text: as §1

MARK3 = MARK3 (Homo sapiens, UniProt P27448); experiment: Kinase profiling MARK3
Source text: as §1

RIPK2 = RIPK2 (Homo sapiens, UniProt O43353); experiment: Kinase profiling RIPK2
Source text: as §1

TBK1 = target: T2, TBK1 (Homo sapiens, UniProt Q9UHD2); experiment: Kinase profiling TBK1
T2 sequence (Q9UHD2 1-729): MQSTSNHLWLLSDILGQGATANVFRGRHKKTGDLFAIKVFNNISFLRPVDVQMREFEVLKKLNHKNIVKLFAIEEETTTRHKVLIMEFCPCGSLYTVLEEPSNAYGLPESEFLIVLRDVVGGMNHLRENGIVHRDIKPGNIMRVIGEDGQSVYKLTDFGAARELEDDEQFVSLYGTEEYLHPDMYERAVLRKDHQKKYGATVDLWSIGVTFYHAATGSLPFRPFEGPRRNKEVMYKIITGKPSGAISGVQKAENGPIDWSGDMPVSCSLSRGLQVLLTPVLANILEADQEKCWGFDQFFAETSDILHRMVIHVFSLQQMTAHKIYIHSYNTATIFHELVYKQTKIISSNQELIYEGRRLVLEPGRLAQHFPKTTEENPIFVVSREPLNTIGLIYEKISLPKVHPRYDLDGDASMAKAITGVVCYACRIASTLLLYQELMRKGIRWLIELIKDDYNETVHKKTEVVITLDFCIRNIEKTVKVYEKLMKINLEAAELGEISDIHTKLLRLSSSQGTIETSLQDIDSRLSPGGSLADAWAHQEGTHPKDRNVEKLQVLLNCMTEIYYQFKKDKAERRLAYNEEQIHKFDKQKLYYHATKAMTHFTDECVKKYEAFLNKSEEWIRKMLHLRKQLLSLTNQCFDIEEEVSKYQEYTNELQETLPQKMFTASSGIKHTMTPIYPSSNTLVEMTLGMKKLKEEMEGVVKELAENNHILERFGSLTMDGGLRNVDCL
Source text: as §1

CK2 = experiment: Kinase profiling CK2
Source text: as §1

CHK2 = CHK2 (Homo sapiens, UniProt O96017); experiment: Kinase profiling CHK2
Source text: as §1

TrkA = TrkA (Homo sapiens, UniProt P04629); experiment: Kinase profiling TrkA
Source text: as §1

[1] = 100 micromolar inhibitor concentration, 100 is no change
[2] = 100 micromolar inhibitor, 100 = no change

Chain of RSK1 (Q15418 whole entry, species assumed): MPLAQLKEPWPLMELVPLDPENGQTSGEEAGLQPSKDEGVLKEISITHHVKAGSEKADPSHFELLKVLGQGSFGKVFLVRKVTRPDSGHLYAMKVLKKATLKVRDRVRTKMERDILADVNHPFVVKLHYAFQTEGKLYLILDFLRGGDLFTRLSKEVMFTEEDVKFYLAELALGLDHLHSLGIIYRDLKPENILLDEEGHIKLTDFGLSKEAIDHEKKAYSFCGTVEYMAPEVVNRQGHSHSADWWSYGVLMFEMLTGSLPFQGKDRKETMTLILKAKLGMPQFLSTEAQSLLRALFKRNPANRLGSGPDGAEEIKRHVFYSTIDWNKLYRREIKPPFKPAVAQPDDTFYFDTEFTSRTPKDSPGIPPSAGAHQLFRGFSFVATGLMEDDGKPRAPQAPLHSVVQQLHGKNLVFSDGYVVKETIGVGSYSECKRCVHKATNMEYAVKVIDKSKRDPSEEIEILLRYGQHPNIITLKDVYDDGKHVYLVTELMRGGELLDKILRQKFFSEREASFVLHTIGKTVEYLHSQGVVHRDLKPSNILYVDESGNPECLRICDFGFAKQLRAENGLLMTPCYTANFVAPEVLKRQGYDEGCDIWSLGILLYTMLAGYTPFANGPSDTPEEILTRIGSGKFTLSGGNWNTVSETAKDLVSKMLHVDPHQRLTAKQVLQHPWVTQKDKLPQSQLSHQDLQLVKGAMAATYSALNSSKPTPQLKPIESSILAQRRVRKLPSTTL
Chain of PIM1 (P11309 whole entry, species assumed): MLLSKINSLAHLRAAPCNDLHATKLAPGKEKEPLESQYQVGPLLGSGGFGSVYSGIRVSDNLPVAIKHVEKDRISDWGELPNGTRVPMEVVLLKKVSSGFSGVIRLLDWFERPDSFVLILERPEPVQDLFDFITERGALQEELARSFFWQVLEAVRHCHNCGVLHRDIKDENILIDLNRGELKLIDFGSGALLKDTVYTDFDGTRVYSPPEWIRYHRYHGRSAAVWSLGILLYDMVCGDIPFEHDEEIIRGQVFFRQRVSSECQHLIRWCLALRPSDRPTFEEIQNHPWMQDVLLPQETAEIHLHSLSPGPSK
Chain of MARK3 (P27448 whole entry, species assumed): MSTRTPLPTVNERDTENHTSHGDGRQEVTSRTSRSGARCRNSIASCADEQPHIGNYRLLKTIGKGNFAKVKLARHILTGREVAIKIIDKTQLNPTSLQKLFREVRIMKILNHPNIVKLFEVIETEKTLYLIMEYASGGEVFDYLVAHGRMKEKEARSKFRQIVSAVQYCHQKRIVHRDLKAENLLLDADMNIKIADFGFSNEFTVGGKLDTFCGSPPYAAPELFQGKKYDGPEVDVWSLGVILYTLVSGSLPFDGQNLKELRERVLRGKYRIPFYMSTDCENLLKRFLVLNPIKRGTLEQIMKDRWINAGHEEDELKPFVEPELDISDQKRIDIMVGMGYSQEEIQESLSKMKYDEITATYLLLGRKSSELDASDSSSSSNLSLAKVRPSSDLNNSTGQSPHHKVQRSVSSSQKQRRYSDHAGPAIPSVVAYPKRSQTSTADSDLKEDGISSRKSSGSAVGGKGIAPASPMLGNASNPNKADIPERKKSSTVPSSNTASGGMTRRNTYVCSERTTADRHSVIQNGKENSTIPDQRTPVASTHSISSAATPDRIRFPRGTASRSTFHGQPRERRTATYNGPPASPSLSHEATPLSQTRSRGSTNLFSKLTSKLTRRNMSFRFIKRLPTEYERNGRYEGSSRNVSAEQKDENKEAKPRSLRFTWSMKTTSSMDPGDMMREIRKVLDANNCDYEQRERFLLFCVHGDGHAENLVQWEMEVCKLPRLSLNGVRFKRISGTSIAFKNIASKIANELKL
Chain of TrkA (P04629 33-796, species assumed): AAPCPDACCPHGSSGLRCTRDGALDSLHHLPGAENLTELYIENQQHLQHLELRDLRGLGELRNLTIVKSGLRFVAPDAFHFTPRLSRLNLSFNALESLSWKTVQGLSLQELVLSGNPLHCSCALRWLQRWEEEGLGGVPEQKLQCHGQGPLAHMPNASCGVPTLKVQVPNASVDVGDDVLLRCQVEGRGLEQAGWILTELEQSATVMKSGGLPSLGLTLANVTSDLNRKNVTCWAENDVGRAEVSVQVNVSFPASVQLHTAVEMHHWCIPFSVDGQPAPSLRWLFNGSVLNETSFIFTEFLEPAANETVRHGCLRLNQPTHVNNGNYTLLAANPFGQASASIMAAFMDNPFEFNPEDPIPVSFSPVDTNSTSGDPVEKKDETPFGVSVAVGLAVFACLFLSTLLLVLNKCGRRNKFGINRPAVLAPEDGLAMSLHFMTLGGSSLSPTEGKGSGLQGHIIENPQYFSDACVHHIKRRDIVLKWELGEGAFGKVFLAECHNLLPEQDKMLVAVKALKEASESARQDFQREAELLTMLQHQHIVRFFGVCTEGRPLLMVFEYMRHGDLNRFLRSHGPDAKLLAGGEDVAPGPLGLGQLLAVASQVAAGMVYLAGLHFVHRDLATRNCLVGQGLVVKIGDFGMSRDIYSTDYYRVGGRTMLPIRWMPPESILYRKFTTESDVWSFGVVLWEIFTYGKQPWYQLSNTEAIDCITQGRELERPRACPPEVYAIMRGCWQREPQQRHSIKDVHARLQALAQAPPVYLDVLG
Chain of RIPK2 (O43353 whole entry, species assumed): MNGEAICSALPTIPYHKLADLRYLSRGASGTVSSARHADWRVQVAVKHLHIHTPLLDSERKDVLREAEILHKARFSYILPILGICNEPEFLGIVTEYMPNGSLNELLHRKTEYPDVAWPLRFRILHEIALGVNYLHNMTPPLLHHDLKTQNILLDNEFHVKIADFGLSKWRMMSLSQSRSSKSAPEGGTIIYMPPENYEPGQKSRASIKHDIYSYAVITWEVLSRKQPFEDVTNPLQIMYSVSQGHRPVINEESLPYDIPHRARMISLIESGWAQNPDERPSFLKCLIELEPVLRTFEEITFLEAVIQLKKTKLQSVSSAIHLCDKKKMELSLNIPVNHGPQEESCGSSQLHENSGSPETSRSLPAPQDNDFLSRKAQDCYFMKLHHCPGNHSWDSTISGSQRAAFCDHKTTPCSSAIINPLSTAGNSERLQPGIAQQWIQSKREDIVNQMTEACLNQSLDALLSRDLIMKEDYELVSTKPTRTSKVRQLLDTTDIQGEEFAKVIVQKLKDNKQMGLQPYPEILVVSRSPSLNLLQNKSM
Chain of CHK2 (O96017 whole entry, species assumed): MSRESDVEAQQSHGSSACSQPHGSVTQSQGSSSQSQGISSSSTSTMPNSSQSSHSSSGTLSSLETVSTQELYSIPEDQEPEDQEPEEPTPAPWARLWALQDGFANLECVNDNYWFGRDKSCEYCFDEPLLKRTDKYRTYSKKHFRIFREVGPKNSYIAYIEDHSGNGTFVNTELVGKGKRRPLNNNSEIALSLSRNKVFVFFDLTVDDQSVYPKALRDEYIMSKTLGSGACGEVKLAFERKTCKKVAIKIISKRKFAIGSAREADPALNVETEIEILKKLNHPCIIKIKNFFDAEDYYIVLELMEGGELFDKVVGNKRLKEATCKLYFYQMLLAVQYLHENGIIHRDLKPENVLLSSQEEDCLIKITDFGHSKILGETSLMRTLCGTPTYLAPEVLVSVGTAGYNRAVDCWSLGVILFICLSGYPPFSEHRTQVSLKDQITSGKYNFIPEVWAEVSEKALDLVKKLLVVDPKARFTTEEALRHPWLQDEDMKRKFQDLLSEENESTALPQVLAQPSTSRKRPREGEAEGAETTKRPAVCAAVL

Row | Structure (SMILES) | residual kinase activity, RSK1 (RSK1; [1]) | residual kinase activity, PKD1 (PKD1; [1]) | residual kinase activity, DYRK1A (DYRK1A; [1]) | residual kinase activity, PIM1 (PIM1; [1]) | residual kinase activity, PKCa (PKCa; [1]) | residual kinase activity, MARK3 (MARK3; [1]) | residual kinase activity, RIPK2 (RIPK2; [1]) | residual kinase activity, TBK1 (TBK1; [1]) | residual kinase activity, CK2 (CK2; [1]) | residual kinase activity, CHK2 (CHK2; [1]) | residual kinase activity, TrkA (TrkA; [1]) | further results
1 | COC(=O)c1cccc(C(=O)Nc2nc3cc(OC)ccc3s2)c1 [Compound 03-108] | 70 | 102 | 51 | 95 | 85 | 100 | 39 | 102 | 97 | 65 | 85 | 
2 | COc1ccc2sc(NC(=O)c3cccc(C(N)=O)c3)nc2c1 [Compound 03-113] | 87 | 110 | 51 | 50 | 103 | 101 | 99 | 98 | 46 | 98 | 87 | 
3 | N#Cc1ccc2nc(NC(=O)c3ccccc3)sc2c1 [Compound 03-106] | 96 | 86 | 3 | 32 | 100 | 98 | 78 | 94 | 12 | 62 | 66 | 
4 | COc1ccc2nc(NC(=O)c3ccccc3)sc2c1 [Compound 03-98] | 74 | 104 | 6 | 76 | 89 | 72 | 34 | 95 | 88 | 37 | 60 | 
5 | CC(=O)Nc1nc2ccc(F)cc2s1 [Compound 03-94] | 85 | 105 | 12 | 40 | 98 | 96 | 38 | 91 | 91 | 74 | 58 | 
6 | O=C(Nc1nc2ccc(C(F)(F)F)cc2s1)c1ccccc1 [Compound 03-99] | 92 | 114 | 9 | 78 | 114 | 106 | 89 | 96 | 80 | 94 | 84 | 
7 | COC(=O)c1cccc(C(=O)Nc2nc3ccc(F)cc3s2)c1 [Compound 03-110] | 70 | 88 | 13 | 99 | 109 | 105 | 48 | 96 | 86 | 51 | 111 | 
8 | COc1ccc2nc(C(=O)Nc3ccccc3)sc2c1 [Compound 13-03] |  |  |  |  |  |  |  |  |  |  |  | residual kinase activity, RSK1 (RSK1; [2]): 77; residual kinase activity, PKD1 (PKD1; [2]): 113; residual kinase activity, DYRK1A (DYRK1A; [2]): 45; residual kinase activity, PIM1 (PIM1; [2]): 96; residual kinase activity, PKCa (PKCa; [2]): 119; residual kinase activity, MARK3 (MARK3; [2]): 92; residual kinase activity, RIPK2 (RIPK2; [2]): 76; residual kinase activity, TBK1 (TBK1; [2]): 98; residual kinase activity, CK2 (CK2; [2]): 97; residual kinase activity, CHK2 (CHK2; [2]): 92; residual kinase activity, TrkA (TrkA; [2]): 55
9 | O=C(Nc1nc2ccc(F)cc2s1)c1ccccc1 [Compound 03-92] | 79 | 111 | 11 | 69 | 96 | 109 | 69 | 92 | 90 | 80 | 74 | 
10 | COc1ccc2sc(NC(=O)c3ccccc3)nc2c1 [Compound 03-95] | 64 | 92 | 30 | 19 | 53 | 106 | 40 | 100 | 78 | 98 | 35 | 
11 | O=C(Nc1nc2cc(O)ccc2s1)c1ccccc1 [Compound 03-102] | 41 | 60 | 6 | 14 | 72 | 63 | 24 | 66 | 75 | 26 | 38 | 
12 | COc1cccc(NC(=O)Nc2nc3cc(O)ccc3s2)c1 [Compound 13-62] |  |  |  |  |  |  |  |  |  |  |  | residual kinase activity, RSK1 (RSK1; [2]): 25; residual kinase activity, PKD1 (PKD1; [2]): 41; residual kinase activity, DYRK1A (DYRK1A; [2]): 7; residual kinase activity, PIM1 (PIM1; [2]): 14; residual kinase activity, PKCa (PKCa; [2]): 102; residual kinase activity, MARK3 (MARK3; [2]): 12; residual kinase activity, RIPK2 (RIPK2; [2]): 6; residual kinase activity, TBK1 (TBK1; [2]): 48; residual kinase activity, CK2 (CK2; [2]): 24; residual kinase activity, CHK2 (CHK2; [2]): 18; residual kinase activity, TrkA (TrkA; [2]): 9
13 | COC(=O)c1cccc(C(=O)Nc2nc3ccc(C(F)(F)F)cc3s2)c1 [Compound 03-105, Methyl 3-((6-(trifluoromethyl)benzo[d]thiazol-2-yl)carbamoyl)benzoate] |  |  |  |  |  |  |  |  | 89 |  |  | remaining activity at 100 µM (RSK1; read-out: residual kinase activity, RSK1): 87%; remaining activity at 100 µM (PKD1; read-out: residual kinase activity, PKD1): 90%; remaining activity at 100 µM (DYRK1A; read-out: residual kinase activity, DYRK1A): 2%; remaining activity at 100 µM (PIM1; read-out: residual kinase activity, PIM1): 72%; remaining activity at 100 µM (PKCa; read-out: residual kinase activity, PKCa): 96%; remaining activity at 100 µM (MARK3; read-out: residual kinase activity, MARK3): 103%; remaining activity at 100 µM (RIPK2; read-out: residual kinase activity, RIPK2): 79%; remaining activity at 100 µM (TBK1; read-out: residual kinase activity, TBK1): 101%; remaining activity at 100 µM (CHK2; read-out: residual kinase activity, CHK2): 89%; remaining activity at 100 µM (TrkA; read-out: residual kinase activity, TrkA): 82%
